From ChEMBL document CHEMBL1240375, “Identification of a plasmid-borne resistance gene cluster comprising the resistance genes erm(T), dfrK, and tet(L) in a porcine methicillin-resistant Staphylococcus aureus ST398 strain” (2010)
In brackets after ≈: the same amount, converted by molar mass.

Experiments:
Staphylococcus aureus [1] = test: Antimicrobial activity against Staphylococcus aureus RN4220 by broth microdilution method; format: functional
Staphylococcus aureus [2] = test: Antimicrobial activity against Staphylococcus aureus RN4220 transformant carrying plasmid pKKS25 and expressing erm(T), dfrK and tet(L) genes by broth microdilution method; format: functional
Staphylococcus aureus [3] = test: Antimicrobial activity against Staphylococcus aureus 25 transformant carrying plasmid pKKS25 and expressing erm(T), dfrKtet(L), tet(K), tet(M), mecA and blaZ genes by broth microdilution method

Q: Which MIC (Staphylococcus aureus [1]) does the source give for CC1(C)S[C@@H]2[C@H](NC(=O)[C@H](N)c3ccccc3)C(=O)N2[C@H]1C(=O)O [AMPICILLIN] here?
A: 0.06 µg/mL (≈ 0.172 µM)

Q: What about the MIC (Staphylococcus aureus [2]) of the same compound?
A: 0.06 µg/mL (≈ 0.172 µM)

Q: Which MIC (Staphylococcus aureus [1]) does the source give for CN[C@@H]1[C@@H](O[C@H]2O[C@H](CO)[C@@H](N)[C@H](O)[C@H]2O)OC2C[C@@H](N)[C@@H](O[C@H]3[C@H](O)[C@@H](O)[C@H](N)C[C@@H]3N)OC2[C@@H]1O (stereo not given in full) [APRAMYCIN] here?
A: 1 µg/mL (≈ 1.85 µM)

Q: What about the MIC (Staphylococcus aureus [2]) of the same compound?
A: 1 µg/mL (≈ 1.85 µM)

Q: And the MIC (Staphylococcus aureus [3])?
A: 4 µg/mL (≈ 7.41 µM)

Q: What does the source list for O=C(N[C@H](CO)[C@H](O)c1ccc([N+](=O)[O-])cc1)C(Cl)Cl [CHLORAMPHENICOL]?
A: MIC (Staphylococcus aureus [1]): 4 µg/mL (≈ 12.4 µM); MIC (Staphylococcus aureus [2]): 4 µg/mL (≈ 12.4 µM); MIC (Staphylococcus aureus [3]): 8 µg/mL (≈ 24.8 µM)

Q: Which results are given for CCC[C@@H]1C[C@@H](C(=O)N[C@@H]([C@H]2O[C@H](SC)[C@H](O)[C@@H](O)[C@H]2O)[C@H](C)Cl)N(C)C1 [CLINDAMYCIN]?
A: MIC (Staphylococcus aureus [1]): ≤ 0.12 µg/mL; MIC (Staphylococcus aureus [2]): ≥ 64 µg/mL; MIC (Staphylococcus aureus [3]): ≥ 64 µg/mL

Q: How did the MIC (Staphylococcus aureus [1]) turn out when CCN1CCN(c2cc3c(cc2F)c(=O)c(C(=O)O)cn3C2CC2)CC1 [ENROFLOXACIN] was run?
A: 0.25 µg/mL (≈ 0.696 µM)

Q: And the MIC (Staphylococcus aureus [2])?
A: 0.25 µg/mL (≈ 0.696 µM)

Q: What about the MIC (Staphylococcus aureus [3]) of the same compound?
A: 0.25 µg/mL (≈ 0.696 µM)

Q: Which results are given for CC[C@H]1OC(=O)[C@H](C)[C@@H](O[C@H]2C[C@@](C)(OC)[C@@H](O)[C@H](C)O2)[C@H](C)[C@@H](O[C@@H]2O[C@H](C)C[C@H](N(C)C)[C@H]2O)[C@](C)(O)C[C@@H](C)C(=O)[C@H](C)[C@@H](O)[C@]1(C)O [ERYTHROMYCIN]?
A: MIC (Staphylococcus aureus [1]): 0.25 µg/mL (≈ 0.341 µM); MIC (Staphylococcus aureus [2]): ≥ 128 µg/mL; MIC (Staphylococcus aureus [3]): ≥ 128 µg/mL

Q: With CC(=O)NC[C@H]1CN(c2ccc(N3CCOCC3)c(F)c2)C(=O)O1 [LINEZOLID] as the compound, how does the MIC (Staphylococcus aureus [1]) read?
A: 0.5 µg/mL (≈ 1.48 µM)

Q: And the MIC (Staphylococcus aureus [2])?
A: 0.5 µg/mL (≈ 1.48 µM)

Q: And the MIC (Staphylococcus aureus [3])?
A: 0.5 µg/mL (≈ 1.48 µM)

Q: What does the source list for Cc1onc(-c2ccccc2)c1C(=O)N[C@@H]1C(=O)N2[C@@H]1SC(C)(C)[C@@H]2C(=O)O [OXACILLIN]?
A: MIC (Staphylococcus aureus [1]): 0.06 µg/mL (≈ 0.149 µM); MIC (Staphylococcus aureus [2]): 0.06 µg/mL (≈ 0.149 µM); MIC (Staphylococcus aureus [3]): 8 µg/mL (≈ 19.9 µM)

Q: For CC1(C)S[C@@H]2[C@H](NC(=O)Cc3ccccc3)C(=O)N2[C@H]1C(=O)O [PENICILLIN G], which MIC (Staphylococcus aureus [1]) is on record?
A: ≤ 0.03 µg/mL

Q: What about the MIC (Staphylococcus aureus [3]) of the same compound?
A: 16 µg/mL (≈ 47.8 µM)

Q: CN[C@@H]1[C@H](O)[C@H](NC)[C@H]2O[C@@]3(O)C(=O)C[C@@H](C)O[C@H]3O[C@@H]2[C@H]1O [SPECTINOMYCIN] was tested. Which MIC (Staphylococcus aureus [1]) did it give?
A: 64 µg/mL (≈ 193 µM)

Q: What about the MIC (Staphylococcus aureus [2]) of the same compound?
A: 64 µg/mL (≈ 193 µM)

Q: What about the MIC (Staphylococcus aureus [3]) of the same compound?
A: 64 µg/mL (≈ 193 µM)

Q: For CN(C)[C@@H]1C(O)=C(C(N)=O)C(=O)[C@@]2(O)C(O)=C3C(=O)c4c(O)cccc4[C@@](C)(O)[C@H]3C[C@@H]12 [TETRACYCLINE], which MIC (Staphylococcus aureus [1]) is on record?
A: 0.06 µg/mL (≈ 0.135 µM)

Q: And the MIC (Staphylococcus aureus [2])?
A: 32 µg/mL (≈ 72 µM)

Q: What about the MIC (Staphylococcus aureus [3]) of the same compound?
A: 128 µg/mL (≈ 288 µM)

Q: What does the source list for C=C[C@]1(C)C[C@@H](OC(=O)CSCCN(CC)CC)[C@]2(C)[C@H](C)CC[C@]3(CCC(=O)[C@H]32)[C@@H](C)[C@@H]1O [TIAMULIN]?
A: MIC (Staphylococcus aureus [1]): 0.12 µg/mL (≈ 0.243 µM); MIC (Staphylococcus aureus [2]): 0.12 µg/mL (≈ 0.243 µM); MIC (Staphylococcus aureus [3]): 0.5 µg/mL (≈ 1.01 µM)

Q: How did the MIC (Staphylococcus aureus [1]) turn out when COc1cc(Cc2cnc(N)nc2N)cc(OC)c1OC [TRIMETHOPRIM] was run?
A: 0.5 µg/mL (≈ 1.72 µM)

Q: What about the MIC (Staphylococcus aureus [2]) of the same compound?
A: ≥ 128 µg/mL

Q: And the MIC (Staphylococcus aureus [3])?
A: ≥ 128 µg/mL

Q: How did the MIC (Staphylococcus aureus [1]) turn out when CC[C@H]1OC(=O)C[C@@H](O)[C@H](C)[C@@H](O[C@@H]2O[C@H](C)[C@@H](O[C@H]3C[C@@](C)(O)[C@@H](O)[C@H](C)O3)[C@H](N(C)C)[C@H]2O)[C@@H](CC=O)C[C@@H](C)C(=O)/C=C/C(C)=C/[C@@H]1CO[C@@H]1O[C@H](C)[C@@H](O)[C@@H](OC)[C@H]1OC.O=C(O)C(O)C(O)C(=O)O [TYLOCIN TARTARATE] was run?
A: 1 µg/mL

Q: And the MIC (Staphylococcus aureus [2])?
A: ≥ 64 µg/mL

Q: What about the MIC (Staphylococcus aureus [3]) of the same compound?
A: ≥ 64 µg/mL

Q: For C=C[C@]1(C)C[C@@H](OC(=O)CSC(C)(C)CNC(=O)[C@H](N)C(C)C)[C@]2(C)[C@H](C)CC[C@]3(CCC(=O)[C@H]32)[C@@H](C)[C@@H]1O [VALNEMULIN], which MIC (Staphylococcus aureus [1]) is on record?
A: 0.03 µg/mL (≈ 0.0531 µM)

Q: What about the MIC (Staphylococcus aureus [2]) of the same compound?
A: 0.03 µg/mL (≈ 0.0531 µM)

Q: And the MIC (Staphylococcus aureus [3])?
A: 0.03 µg/mL (≈ 0.0531 µM)

Q: Which MIC (Staphylococcus aureus [1]) does the source give for GENTAMICIN here?
A: 0.25 µg/mL

Q: What about the MIC (Staphylococcus aureus [2]) of the same compound?
A: 0.25 µg/mL
